Here are results for 25 compounds from patent publication US20230365592A1 (Agios Pharmaceuticals, Inc., priority 2022, published 2023).

The AC50 is the concentration at which the activity in the assay is half-maximal.

The target in this test is T1, human PAH with the R408W mutation (Homo sapiens, UniProt P00439, R408W).
T1 construct: expressed in transfected cells
T1 sequence (P00439 1-452 R408W): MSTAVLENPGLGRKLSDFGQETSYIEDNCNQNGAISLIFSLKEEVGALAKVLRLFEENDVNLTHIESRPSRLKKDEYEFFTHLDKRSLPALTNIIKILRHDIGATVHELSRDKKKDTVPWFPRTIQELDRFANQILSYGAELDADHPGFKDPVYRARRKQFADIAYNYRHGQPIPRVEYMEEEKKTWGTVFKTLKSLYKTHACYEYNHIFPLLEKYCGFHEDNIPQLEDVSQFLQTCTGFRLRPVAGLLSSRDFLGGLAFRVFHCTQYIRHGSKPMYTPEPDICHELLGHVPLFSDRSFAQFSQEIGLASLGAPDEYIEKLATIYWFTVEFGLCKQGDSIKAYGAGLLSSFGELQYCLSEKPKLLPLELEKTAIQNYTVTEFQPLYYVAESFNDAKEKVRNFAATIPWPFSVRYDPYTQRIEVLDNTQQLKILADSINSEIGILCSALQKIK
The test can be described thus: Cell Based Phenylalanine Flux Assay.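 Further: after compound treatment, cells received sepiapterin plus isotope-labelled Phenylalanine for 4 hours, then labelled Tyrosine in the medium was quantified, 10-point 2-fold dilution series run in duplicate.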 Conditions: A375 cells expressing human R408W PAH; 24 hrs compound incubation; 13C-Tyrosine by LC-MS; average where tested multiple times; read-out: AC50.
`O=C(c1nnc(-c2ccn(C(F)F)n2)o1)N1CCc2[nH]cnc2[C@H]1c1cc2cccc(Cl)n2n1` [Example 964, (S)-(4-(7-chloropyrazolo[1,5-a]pyridin-2-yl)-6,7-dihydro-1H-imidazo[4,5-c]pyridin-5(4H)-yl)(5-(1-(difluoromethyl)-1H-pyrazol-3-yl)-1,3,4-oxadiazol-2-yl)methanone]: the AC50 is below 500 nM.
As to `O=C(c1nnc(-c2ccn(C(F)F)n2)o1)N1CCc2[nH]cnc2[C@@H]1c1cc2cccc(Cl)n2n1` [Example 965, (R)-(4-(7-chloropyrazolo[1,5-a]pyridin-2-yl)-6,7-dihydro-1H-imidazo[4,5-c]pyridin-5(4H)-yl)(5-(1-(difluoromethyl)-1H-pyrazol-3-yl)-1,3,4-oxadiazol-2-yl)methanone], the AC50 was above 5000 nM.
For `Cc1ccc2cc([C@@H]3c4nc[nH]c4CCN3C(=O)c3nnc(C4CC4)o3)nn2c1` [Example 966, (S)-(5-cyclopropyl-1,3,4-oxadiazol-2-yl)(4-(6-methylpyrazolo[1,5-a]pyridin-2-yl)-6,7-dihydro-1H-imidazo[4,5-c]pyridin-5(4H)-yl)methanone], the AC50 was in the range of 500 to 1000 nM.
In the case of `Cc1ccc2cc([C@H]3c4nc[nH]c4CCN3C(=O)c3nnc(C4CC4)o3)nn2c1` [Example 967, (R)-(5-cyclopropyl-1,3,4-oxadiazol-2-yl)(4-(6-methylpyrazolo[1,5-a]pyridin-2-yl)-6,7-dihydro-1H-imidazo[4,5-c]pyridin-5(4H)-yl)methanone], the AC50 is above 5000 nM.
Under `CC(C)(F)c1nnc(C(=O)N2CCc3[nH]cnc3[C@@H]2c2cc3cccc(Cl)n3n2)o1` [Example 968, (R)-(4-(7-chloropyrazolo[1,5-a]pyridin-2-yl)-6,7-dihydro-1H-imidazo[4,5-c]pyridin-5(4H)-yl)(5-(2-fluoropropan-2-yl)-1,3,4-oxadiazol-2-yl)methanone] stands 1000 to 5000 nM.
As to `COc1cccn2nc([C@H]3c4nc[nH]c4CCN3C(=O)c3nnc(C(C)(C)F)o3)cc12` [Example 970, (R)-(5-(2-fluoropropan-2-yl)-1,3,4-oxadiazol-2-yl)(4-(4-methoxypyrazolo[1,5-a]pyridin-2-yl)-6,7-dihydro-1H-imidazo[4,5-c]pyridin-5(4H)-yl)methanone], the AC50 is above 5000 nM.
For `COc1cccn2nc([C@@H]3c4nc[nH]c4CCN3C(=O)c3nnc(C(C)(C)F)o3)cc12` [Example 971, (S)-(5-(2-fluoropropan-2-yl)-1,3,4-oxadiazol-2-yl)(4-(4-methoxypyrazolo[1,5-a]pyridin-2-yl)-6,7-dihydro-1H-imidazo[4,5-c]pyridin-5(4H)-yl)methanone], the AC50 fell in the range of 500 to 1000 nM.
Take `Cc1c(-c2nnc(C(=O)N3CCc4[nH]cnc4[C@H]3c3cc4ccccn4n3)o2)cnn1C` [Example 972, (S)-(5-(1,5-dimethyl-1H-pyrazol-4-yl)-1,3,4-oxadiazol-2-yl)(4-(pyrazolo[1,5-a]pyridin-2-yl)-6,7-dihydro-1H-imidazo[4,5-c)pyridin-5(4H)-yl)methanone]: the AC50 was below 500 nM.
For `Cc1c(-c2nnc(C(=O)N3CCc4[nH]cnc4[C@@H]3c3cc4ccccn4n3)o2)cnn1C` [Example 973, (R)-(5-(1,5-dimethyl-1H-pyrazol-4-yl)-1,3,4-oxadiazol-2-yl)(4-(pyrazolo[1,5-a]pyridin-2-yl)-6,7-dihydro-1H-imidazo[4,5-c]pyridin-5(4H)-yl)methanone], the AC50 was above 5000 nM.
In the case of `O=C(c1nnc(-c2ccccn2)o1)N1CCc2[nH]cnc2[C@@H]1c1cc2cccc(F)n2n1` [Example 974, (R)-(4-(7-fluoropyrazolo[1,5-a]pyridin-2-yl)-6,7-dihydro-1H-imidazo[4,5-c]pyridin-5(4H)-yl)(5-(pyridin-2-yl)-1,3,4-oxadiazol-2-yl)methanone], the AC50 was 1000 to 5000 nM.
Take `O=C(c1nnc(-c2ccccn2)o1)N1CCc2[nH]cnc2[C@H]1c1cc2cccc(F)n2n1` [Example 975, (S)-(4-(7-fluoropyrazolo[1,5-a]pyridin-2-yl)-6,7-dihydro-1H-imidazo[4,5-c]pyridin-5(4H)-yl)(5-(pyridin-2-yl)-1,3,4-oxadiazol-2-yl)methanone]: the AC50 is below 500 nM.
On to `Cn1ccc(-c2nnc(C(=O)N3CCc4[nH]cnc4[C@H]3c3cc4cccc(Cl)n4n3)o2)n1` [Example 976, (S)-(4-(7-chloropyrazolo[1,5-a]pyridin-2-yl)-6,7-dihydro-1H-imidazo[4,5-c)pyridin-5(4H)-yl)(5-(1-methyl-1H-pyrazol-3-yl)-1,3,4-oxadiazol-2-yl)methanone], for which the AC50 was below 500 nM.
On to `Cn1ccc(-c2nnc(C(=O)N3CCc4[nH]cnc4[C@@H]3c3cc4cccc(Cl)n4n3)o2)n1` [Example 977, (R)-(4-(7-chloropyrazolo[1,5-a]pyridin-2-yl)-6,7-dihydro-1H-imidazo(4,5-c]pyridin-5(4H)-yl)(5-(1-methyl-1H-pyrazol-3-yl)-1,3,4-oxadiazol-2-yl)methanone], for which the AC50 is above 5000 nM.
The same measure for `O=C(c1nnc(-c2cnccn2)o1)N1CCc2[nH]cnc2[C@@H]1c1cc2cccc(Cl)n2n1` [Example 978, (R)-(4-(7-chloropyrazolo[1,5-a]pyridin-2-yl)-6,7-dihydro-1H-imidazo[4,5-c]pyridin-5(4H)-yl)(5-(pyrazin-2-yl)-1,3,4-oxadiazol-2-yl)methanone]: 1000 to 5000 nM; for `O=C(c1nnc(C2CC2)o1)N1CCc2[nH]cnc2[C@H]1c1cc2c(C(F)F)cccn2n1` [Example 980, (S)-(5-cyclopropyl-1,3,4-oxadiazol-2-yl)(4-(4-(difluoromethyl)pyrazolo[1,5-a]pyridin-2-yl)-6,7-dihydro-1H-imidazo[4,5-c]pyridin-5(4H)-yl)methanone]: below 500 nM.
As to `O=C(c1nnc(C2CC2)o1)N1CCc2[nH]cnc2[C@@H]1c1cc2c(C(F)F)cccn2n1` [Example 981, (R)-(5-cyclopropyl-1,3,4-oxadiazol-2-yl)(4-(4-(difluoromethyl)pyrazolo[1,5-a]pyridin-2-yl)-6,7-dihydro-1H-imidazo[4,5-c]pyridin-5(4H)-yl)methanone], the AC50 lay in the range of 1000 to 5000 nM.
The same measure for `O=C(c1nnc(-c2ncccc2F)o1)N1CCc2[nH]cnc2[C@H]1c1cc2cccc(Cl)n2n1` [Example 982, (S)-(4-(7-chloropyrazolo[1,5-a]pyridin-2-yl)-6,7-dihydro-1H-imidazo[4,5-c]pyridin-5(4H)-yl)(5-(3-fluoropyridin-2-yl)-1,3,4-oxadiazol-2-yl)methanone]: below 500 nM; for `O=C(c1nnc(-c2ncccc2F)o1)N1CCc2[nH]cnc2[C@@H]1c1cc2cccc(Cl)n2n1` [Example 983, (R)-(4-(7-chloropyrazolo[1,5-a]pyridin-2-yl)-6,7-dihydro-1H-imidazo[4,5-c]pyridin-5(4H)-yl)(5-(3-fluoropyridin-2-yl)-1,3,4-oxadiazol-2-yl)methanone]: above 5000 nM.
Under `O=C(c1nnc(-c2cnn(C(F)F)c2)o1)N1CCc2[nH]cnc2[C@@H]1c1cc2cccc(F)n2n1` [Example 985, (R)-(5-(1-(difluoromethyl)-1H-pyrazol-4-yl)-1,3,4-oxadiazol-2-yl)(4-(7-fluoropyrazolo[1,5-a]pyridin-2-yl)-6,7-dihydro-1H-imidazo[4,5-c]pyridin-5(4H)-yl)methanone] stands 1000 to 5000 nM; under `CC(C)(F)c1nnc(C(=O)N2CCc3[nH]cnc3[C@@H]2c2cc3cccc(F)n3n2)o1` [Example 986, (R)-(5-(2-fluoropropan-2-yl)-1,3,4-oxadiazol-2-yl)(4-(7-fluoropyrazolo[1,5-a]pyridin-2-yl)-6,7-dihydro-1H-imidazo[4,5-c]pyridin-5(4H)-yl)methanone], 1000 to 5000 nM; under `CC(C)(F)c1nnc(C(=O)N2CCc3[nH]cnc3[C@H]2c2cc3cccc(F)n3n2)o1` [Example 987, (S)-(5-(2-fluoropropan-2-yl)-1,3,4-oxadiazol-2-yl)(4-(7-fluoropyrazolo[1,5-a]pyridin-2-yl)-6,7-dihydro-1H-imidazo[4,5-c]pyridin-5(4H)-yl)methanone], 500 to 1000 nM.
On to `Cc1cccn2nc([C@@H]3c4nc[nH]c4CCN3C(=O)c3nnc(-c4cnn(C)c4C)o3)cc12` [Example 988, (S)-(5-(1,5-dimethyl-1H-pyrazol-4-yl)-1,3,4-oxadiazol-2-yl)(4-(4-methylpyrazolo[1,5-a]pyridin-2-yl)-6,7-dihydro-1H-imidazo[4,5-c)pyridin-5(4H)-yl)methanone], for which the AC50 was below 500 nM.
For the compound `Cc1cccn2nc([C@H]3c4nc[nH]c4CCN3C(=O)c3nnc(-c4cnn(C)c4C)o3)cc12` [Example 989, (R)-(5-(1,5-dimethyl-1H-pyrazol-4-yl)-1,3,4-oxadiazol-2-yl)(4-(4-methylpyrazolo[1,5-a]pyridin-2-yl)-6,7-dihydro-1H-imidazo[4,5-c]pyridin-5(4H)-yl)methanone], the AC50 is 1000 to 5000 nM.
The same measure for `CC(C)(O)c1nc(Cl)c(C(=O)N2CCc3[nH]cnc3[C@H]2c2cc3ccccn3n2)o1` [Example 990, (S)-(4-chloro-2-(2-hydroxypropan-2-yl)oxazol-5-yl)(4-(pyrazolo[1,5-a]pyridin-2-yl)-6,7-dihydro-1H-imidazo[4,5-c]pyridin-5(4H)-yl)methanone]: 500 to 1000 nM; for `Cc1nc(C(C)(C)C#N)oc1C(=O)N1CCc2[nH]cnc2[C@H]1c1cc2ccccn2n1` [Example 992, (S)-2-methyl-2-(4-methyl-5-(4-(pyrazolo[1,5-a]pyridin-2-yl)-4,5,6,7-tetrahydro-1H-imidazo[4,5-c]pyridine-5-carbonyl)oxazol-2-yl)propanenitrile]: 500 to 1000 nM.
